Molecular target: T1, purified catalytic domain of recombinant human TACE (rhTACEc) (Homo sapiens, UniProt P78536, N452Q/S266A)
T1 construct: rhTACEc, Residue 215 to 477 with two mutation (S266A and N452Q) and a 6× His tail; 6xHis (C); made in house; host or cells: baculovirus/Hi5 insect cells
Assay: TACE kinetic assay, cleavage of internally quenched peptide substrate SPDL-3
Assay type: biochemical
Description: TACE activity is determined by a kinetic assay measuring the rate of increase in fluorescent intensity generated by TACE catalyzed cleavage of an internally quenched peptide substrate (SPDL-3). The purified catalytic domain of recombinant human TACE (rhTACEc, Residue 215 to 477 with two mutation (S266A and N452Q) and a 6× His tail) is used in the assay. It is purified from the baculovirus/Hi5 cells expression system using affinity chromatography. The substrate SPDL-3 is an internally quenched peptide (MCA-Pro-Leu-Ala-Gln-Ala-Val-Arg-Ser-Ser-Ser-Dpa-Arg-NH2), with its sequence derived from the pro-TNFα cleavage site. MCA is (7-Methoxycoumarin-4-yl)acetyl. Dpa is N-3-(2,4-Dinitrophenyl)-L-2,3-diaminopropionyl.
A 50 μl assay mixture contains 20 mM HEPES, pH 7.3, 5 mM CaCl2, 100 μM ZnCl2, 2% DMSO, 0.04% Methylcellulose, 30 μM SPDL-3, 70 pM rhTACEc and a test compound. RhTACEc is pre-incubated with the testing compound for 90 min. at 25° C. Reaction is started by addition of the substrate. The fluorescent intensity (excitation at 320 nm, emission at 405 nm) was measured every 45 seconds for 30 min. using a fluorospectrometer (GEMINI XS, Molecular Devices). Rate of enzymatic reaction is shown as Units per second. Effect of a test compound is shown as % of TACE activity in the absence of the compound.

[1] = Specific TACE inhibitory activity (Ki values)
[2] = TACE inhibitory activity, class letters

T1 sequence (P78536 215-477 S266A/N452Q): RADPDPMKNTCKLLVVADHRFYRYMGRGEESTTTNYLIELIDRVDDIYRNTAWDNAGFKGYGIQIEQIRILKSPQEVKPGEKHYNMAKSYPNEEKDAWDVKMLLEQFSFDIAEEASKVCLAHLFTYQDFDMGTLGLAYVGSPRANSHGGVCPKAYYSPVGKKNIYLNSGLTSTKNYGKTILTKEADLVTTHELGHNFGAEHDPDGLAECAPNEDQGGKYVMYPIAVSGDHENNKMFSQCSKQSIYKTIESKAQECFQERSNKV

Row | Ki [1] [nM] | Ki [2] [nM] | SMILES
1 | 59 | 20 to 100 | CCOC(=O)[C@@]1(Cc2ccc(OCc3cc(-c4ccccc4)nc4ccccc34)cc2)CNC[C@@H]1C(=O)NO [Compound A12]
2 | 55 | 20 to 100 | O=C(NO)[C@H]1NC(=O)[C@@H]1Cc1ccc(OCc2cc(-c3ccccc3)nc3ccccc23)cc1 [Compound C5]
3 | 11.7 | < 20 | O=C1N[C@H](C(=O)NO)[C@@H]1Cc1ccc(OCc2cc(-c3ccccc3)nc3ccccc23)cc1 [Compound B8]
4 |  | 100 to 1000 | COC(=O)C(Oc1ccc(C[C@H]2C(=O)N[C@@H]2C(=O)NO)cc1)c1cc(-c2ccccc2)nc2ccccc12 (stereo partly shown) [Compound E3]

From US7879997B2, “Compounds for the treatment of inflammatory disorders” (Schering Corporation, priority 2005, dated 2011)
